Data reported in ChEMBL document CHEMBL4024703, “Recent Progress in the Development of Transglutaminase 2 (TGase2) Inhibitors” (J Med Chem, 2017).

Legend:
[1] = Metabolic stability in Wistar rat blood plasma after 45 mins by HPLC analysis; type: ADME, cell-free; conditions: read-out: Stability
[2] = Metabolic stability in Wistar rat blood plasma after 15 mins by HPLC analysis; type: ADME, cell-free; conditions: read-out: Stability
[3] = target: T1, Protein-glutamine gamma-glutamyltransferase (Homo sapiens, UniProt P21980); test: Inhibition of recombinant human TG2 by fluorescence assay
T1 sequence (P21980 whole entry): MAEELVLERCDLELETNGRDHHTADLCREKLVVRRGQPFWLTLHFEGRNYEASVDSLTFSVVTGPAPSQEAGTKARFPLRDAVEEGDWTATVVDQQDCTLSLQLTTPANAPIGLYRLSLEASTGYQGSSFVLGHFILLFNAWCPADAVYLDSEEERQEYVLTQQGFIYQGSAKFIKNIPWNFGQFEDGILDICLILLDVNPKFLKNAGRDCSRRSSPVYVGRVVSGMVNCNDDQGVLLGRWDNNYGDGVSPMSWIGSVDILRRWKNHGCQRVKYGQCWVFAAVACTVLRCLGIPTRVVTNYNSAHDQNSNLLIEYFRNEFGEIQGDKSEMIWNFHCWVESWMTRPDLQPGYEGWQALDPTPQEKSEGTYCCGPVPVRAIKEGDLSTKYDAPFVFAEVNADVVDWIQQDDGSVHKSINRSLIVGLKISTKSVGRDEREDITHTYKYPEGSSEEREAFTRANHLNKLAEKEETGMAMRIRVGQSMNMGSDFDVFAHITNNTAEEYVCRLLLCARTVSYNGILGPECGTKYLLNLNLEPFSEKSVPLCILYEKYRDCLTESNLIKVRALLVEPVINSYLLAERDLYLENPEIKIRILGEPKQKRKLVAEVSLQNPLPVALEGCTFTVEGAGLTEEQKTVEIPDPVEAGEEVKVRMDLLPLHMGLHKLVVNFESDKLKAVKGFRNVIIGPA

Mus musculus [4] = test: Antihypertensive activity in C57BL/6 mouse angiotensin 2-induced hypertensive nephrosclerosis model assessed as reduction in collagen deposition in kidney at 25 mg/kg/day administered sc with angiotensin 2 for 14 days by Sirius red/collagen staining based assay; type: functional; conditions: C57BL/6, sc, 336 h
Mus musculus [5] = test: Antihypertensive activity in C57BL/6 mouse angiotensin 2-induced hypertensive nephrosclerosis model assessed as reduction in collagen deposition in blood vessels at 25 mg/kg/day administered sc with angiotensin 2 for 14 days by Sirius red/collagen staining based assay; type: functional; conditions: C57BL/6, sc, 336 h
Homo sapiens [6] = organism: Homo sapiens; test: Selectivity ratio of IC50 for human TG3 to IC50 for human TG2
Homo sapiens [7] = organism: Homo sapiens; test: Selectivity ratio of IC50 for human F13a to IC50 for human TG2
Homo sapiens [8] = organism: Homo sapiens; test: Selectivity ratio of IC50 for human TG1 to IC50 for human TG2
Homo sapiens [9] = organism: Homo sapiens; test: Selectivity ratio of IC50 for human TG6 to IC50 for human TG2

C=CC(=O)NCCCC[C@H](NC(=O)Cc1ccccc1)C(=O)N1CCN(c2cccc(C)n2)CC1
remaining at 0.75 h [1]: 29% | remaining at 0.25 h [2]: 65%

C=CC(=O)NCC(=O)N1CCN(S(=O)(=O)c2cccc3c(N(C)C)cccc23)CC1
IC50 [3]: 6 nM | inhibition in vivo at 25 mg/kg/day (Mus musculus [4]): 40% | inhibition in vivo at 25 mg/kg/day (Mus musculus [5]): 45%

CCC(CC)CNC(=O)Cn1cccc(NC(=O)[C@H](CC/C=C/C(=O)OC)NC(=O)c2cncn2C)c1=O
Ratio IC50 (Homo sapiens [6]): > 100 | Ratio IC50 (Homo sapiens [7]): > 100 | Ratio IC50 (Homo sapiens [8]): > 100 | Ratio IC50 (Homo sapiens [9]): > 100
